Patent publication US20220298115A1, “SMALL MOLECULE INHIBITORS OF ACETYL COENZYME A SYNTHETASE SHORT CHAIN 2 (ACSS2)” (Curadev Pharma Pvt. Ltd., priority 2019, published 2022)

Legend:
[1] = biological target: T1, human ACSS2 (Homo sapiens, UniProt Q9NR19); assay: ACSS2 enzyme assay (acetyl-CoA formation, LC-MS/MS); type: biochemical; details: cytosolic fraction of BT474 cells as ACSS2 source; 100 μM acetate, CoA and ATP; 2 h at 25° C.; read-out: Enzyme Activity (IC50 range)
T1 construct: The cytosolic fraction of BT474 cells was used as a source of the ACSS2 enzyme; endogenous in cells; host or cells: BT474 cells (cytosolic fraction)
Method: Novel compounds were screened in a human ACSS2 enzyme assay. Briefly, the ACSS2 enzyme reaction was monitored by directly measuring acetyl-CoA formation. The cytosolic fraction of BT474 cells was used as a source of the ACSS2 enzyme. A short protocol for this assay is provided below.
Preparation of Cytosolic Fraction from BT474 Cells
9×10^6 cells were harvested by trypsinization followed by centrifugation. The cell pellet was washed with PBS and dissolved in 500 μl STM buffer (50 mM Tris-HCl pH7.4, 250 mM sucrose, 5 mM MgCl2 & protease-phosphatase inhibitor cocktail) and homogenized at 600-1000 rpm for 1 min. on ice followed by incubation for 30 min. with intermittent vortexing. Supernatant was collected by centrifugation at 800 g for 15 min. at 4° C. Cytosolic fraction was prepared by further centrifugation of the supernatant at 12000 g for 15 min. at 4° C. Total protein content of the cytosolic fraction was estimated & diluted to 1 mg/ml concentration in storage buffer (25 mM Tris-HCl pH7.4, 1 mM MgCl2, 1 mM DTT & 10% glycerol) and stored at −80° C. for further use.
100 ng of cytosolic fraction in buffer composed of 25 mM Tris-HCl pH7.4 1 mM MgCl2, 1 mM DTT & 0.05% Tween20 was preincubated with desired concentrations of novel compounds for 5 min. maintaining 1% DMSO. Reaction was started with addition of substrate mix (100 μM of acetate, CoA and ATP) and incubated for 2 h at 25° C. with constant shaking at 500 rpm. Post incubation the reaction was terminated by addition of 10% TCA followed by 5 fold dilution in water. The reaction mixture was centrifuged at 800 g for 10 min. at RT and acetyl-CoA detected in supernatant by LC-MS/MS (QTrap5500 ABSCIEX).

[2] = tested on: [14C] acetate incorporation in macromolecules, BT474 cells; assay: Cell based [14C] acetate incorporation assay; details: Homo sapiens, BT-474, 3 h at 37° C., read-out: Cellular Activity (IC50 range)
Method: Cell Based [^14C] Acetate Incorporation Assay
In the cellular assay, ACSS2 inhibitors were screened against [^14C] acetate incorporation in macromolecules. 4×10^4 BT474 cells were plated in 96 well plates in growth media composed of DMEM & 10% FBS and incubated overnight in a 37° C., 5% CO2 incubator. The following day the cells were washed in HBSS and the assay was performed in 100 μl of HBSS. 50 μl of 4× compound in 4% DMSO was added to the cells and preincubated for 10 min. at 37° C. 50 μl of acetate solution (0.1 μCi ^14C acetate+10 μM ^12C acetate) was added to each well of the plate and incubated for 3 h in a 37° C., 5% CO2 incubator. Following incubation, cells were harvested with water on polyethylene imine (PEI) presoaked GF/C filtermat, air dried and radioactive count were recorded in Trilux micro beta Liquid Scintillation Counter (PerkinElmer).

T1 sequence (Q9NR19 whole entry): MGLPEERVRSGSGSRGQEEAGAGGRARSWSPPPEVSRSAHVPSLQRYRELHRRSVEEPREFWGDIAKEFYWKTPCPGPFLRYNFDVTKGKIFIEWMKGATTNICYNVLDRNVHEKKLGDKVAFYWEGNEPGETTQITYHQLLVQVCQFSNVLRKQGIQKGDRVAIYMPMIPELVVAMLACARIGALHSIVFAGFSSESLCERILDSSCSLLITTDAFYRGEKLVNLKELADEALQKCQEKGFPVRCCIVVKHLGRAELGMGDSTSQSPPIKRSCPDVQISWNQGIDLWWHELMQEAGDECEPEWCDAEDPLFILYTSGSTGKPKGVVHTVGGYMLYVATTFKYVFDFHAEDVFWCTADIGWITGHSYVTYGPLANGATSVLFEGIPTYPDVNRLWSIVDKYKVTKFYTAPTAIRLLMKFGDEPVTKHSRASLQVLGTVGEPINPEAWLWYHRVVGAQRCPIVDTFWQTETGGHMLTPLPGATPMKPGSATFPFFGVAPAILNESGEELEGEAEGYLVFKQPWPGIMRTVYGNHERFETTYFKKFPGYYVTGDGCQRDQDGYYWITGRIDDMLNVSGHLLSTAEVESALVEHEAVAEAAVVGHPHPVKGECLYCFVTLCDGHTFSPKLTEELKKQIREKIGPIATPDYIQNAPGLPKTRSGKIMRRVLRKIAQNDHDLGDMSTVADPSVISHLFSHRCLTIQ

| Structure (SMILES) | IC50 [1] | IC50 [2] |
| --- | --- | --- |
| CC[C@@H](O)CNC(=O)Nc1ccc2nc(-c3ccccc3F)c(-c3ccccc3F)cc2c1 [Example 20, (R)-1-(2,3-Bis(2-fluorophenyl)quinolin-6-yl)-3-(2-hydroxybutyl)urea] | < 100 nM | < 100 nM |
| CCC(O)CNC(=O)Nc1ccc2nc(C)c(C)c(C(N)=O)c2c1 (stereo not shown) [Example 69, 6-(3-(2-hydroxybutyl)ureido)-2,3-dimethylquino-line-4-carboxamide] | ≤ 10000 nM | > 10000 nM |
| CCC(O)CNC(=O)Nc1ccc2nc(-c3ccncc3)c(-c3ccncc3)cc2c1 (stereo not shown) [Example 24, 1-(2,3-di(pyridin-4-yl)quinolin-6-yl)-3-(2-hydroxybutyl) urea] | ≤ 1000 nM | ≤ 10000 nM |
| CCC(O)CNC(=O)Nc1ccc2nc(-c3cccnc3OC)c(-c3cccnc3OC)cc2c1 (stereo not shown) [Example 13, 1-(2,3-bis(2-methoxypyridin-3-yl)quinolin-6-yl)-3-(2-hydroxybutyl) urea] | ≤ 1000 nM | ≤ 1000 nM |
| CCC(O)CNC(=O)Nc1ccc2nc(-c3cccnc3)c(-c3cccnc3)cc2c1 (stereo not shown) [Example 19, 1-(2,3-di(pyridin-3-yl)quinolin-6-yl)-3-(2-hydroxybutyl) urea] | < 100 nM | ≤ 10000 nM |
| CC[C@H](CNC(=O)Nc1ccc2nc(-c3ccccc3)c(-c3ccccc3F)cc2c1)OP(=O)(O)O [Example 117, (R)-1-(3-(3-(2-fluorophenyl)-2-phenylquinolin-6-yl)ureido)butan-2-yl dihydrogen phosphate] | < 100 nM | < 100 nM |
| CCC(O)CNC(=O)Nc1ccc2nc(C3CCCCC3)c(-c3ccccc3F)cc2c1 (stereo not shown) [Example 39, 1-(2-cyclohexyl-3-(2-fluorophenyl)quinolin-6-yl)-3-(2-hydroxybutyl) urea] | > 10000 nM | ≤ 10000 nM |
| CC[C@@H](O)CNC(=O)Nc1ccc2nc(C)c(-c3ccccc3)cc2c1 [Example 72, (R)-1-(2-Hydroxybutyl)-3-(2-methyl-3-phenylquinolin-6-yl)urea] | < 100 nM | < 100 nM |
| O=C(Nc1ccc2nc(-c3ccccc3)c(-c3ccccc3)cc2c1)NC1CCCC1O (stereo not shown) [Example 136, 1-(2,3-diphenylquinolin-6-yl)-3-(2-hydroxycyclo-pentyl)urea] | ≤ 1000 nM | ≤ 1000 nM |
| CCC(O)CNC(=O)Nc1ccc2nc(C)c(-c3ccccc3)cc2c1 (stereo not shown) [Example 52, 1-(2-hydroxybutyl)-3-(2-methyl-3-phenylquinolin-6-yl)urea] | < 100 nM | < 100 nM |
| CCC(O)CNC(=O)Nc1ccc2nc(-c3ccccc3)c(-c3ccccc3)c(C(=O)N(C)C)c2c1 (stereo not shown) [Example 63, 6-(3-(2-hydroxybutyl)ureido)-N,N-dimethyl-2,3-diphenylquino-line-4-carboxamide] | < 100 nM | < 100 nM |
| CC[C@@H](O)CNC(=O)Nc1ccc2nc(-c3ccccc3)c(-c3ccccc3F)cc2c1 [Example 15, (R)-1-(3-(2-Fluorophenyl)-2-phenylquinolin-6-yl)-3-(2-hydroxybutyl)urea] | < 100 nM | < 100 nM |
| CCC(O)CNC(=O)Nc1ccc2nc(-c3ccccc3OCC(C)C)c(-c3ccccc3)cc2c1 (stereo not shown) [Example 59, 1-(2-hydroxybutyl)-3-(2-(2-isobutoxyphe-nyl)-3-phenylquinolin-6-yl)urea] | < 100 nM | < 100 nM |
| CCC(O)CNC(=O)Nc1ccc2nc(-c3ccnc(OC)c3)c(-c3ccnc(OC)c3)cc2c1 (stereo not shown) [Example 9, 1-(2,3-bis(2-methoxypyridin-4-yl)quinolin-6-yl)-3-(2-hydroxybutyl) urea] | > 10000 nM | ≤ 10000 nM |
| CCC(O)CNC(=O)Nc1ccc2nc(C)cc(C(N)=O)c2c1 (stereo not shown) [Example 74, 6-(3-(2-hydroxybutyl)ureido)-2-methylquinoline-4-carboxamide] | ≤ 10000 nM | > 10000 nM |
| CCCCNC(=O)Nc1ccc2nc(-c3ccccc3)c(-c3ccccc3OC)cc2c1 [Example 23, 1-butyl-3-(3-(2-methoxyphenyl)-2-phenylquinolin-6-yl)urea] | < 100 nM | < 100 nM |
| CCC(O)CNC(=O)Nc1ccc2nc(-c3ccccc3)c(-c3ccccc3)c(C(=O)NC3CC3)c2c1 (stereo not shown) [Example 64, N-cyclopropyl-6-(3-(2-hydroxybutyl)ureido)-2,3-diphenylquino-line-4-carboxamide] | < 100 nM | < 100 nM |
| CCC(O)CNC(=O)Nc1ccc2nc(-c3ccccc3)c(-c3ccccc3)c(NS(C)(=O)=O)c2c1 (stereo not shown) [Example 94, N-(6-(3-(2-Hydroxybutyl)ureido)-2,3-diphenylquinolin-4-yl)methanesulfonamide] | < 100 nM | < 100 nM |
| CCC(O)CNC(=O)Nc1ccc2nc(-c3ccccc3)c(-c3ccccc3F)cc2c1 (stereo not shown) [Example 7, 1-(3-(2-fluorophenyl)-2-phenylquinolin-6-yl)-3-(2-hydroxybutyl) urea] | < 100 nM | < 100 nM |

Second part, the molecule after the results:

| IC50 [1] | IC50 [2] | Structure (SMILES) |
| --- | --- | --- |
| < 100 nM | < 100 nM | CC[C@@H](O)CNC(=O)Nc1ccc2nc(C)c(-c3ccccc3)cc2c1-c1cnn(C)c1 [Example 96, (R)-1-(2-hydroxybutyl)-3-(2-methyl-5-(1-methyl-1H-pyrazol-4-yl)-3-phenylquinolin-6-yl)urea] |
| ≤ 1000 nM | ≤ 1000 nM | CC[C@H](O)CNC(=O)Nc1ccc2nc(C)c(-c3ccccc3)cc2c1 [Example 89, (S)-1-(2-hydroxybutyl)-3-(2-methyl-3-phenylquinolin-6-yl)urea] |
| < 100 nM | < 100 nM | CCC(O)CNC(=O)Nc1ccc2nc(-c3ccccc3OC)c(-c3ccccc3)cc2c1 (stereo not shown) [Example 12, 1-(2-hydroxybutyl)-3-(2-(2-methoxyphenyl)-3-phenylquinolin-6-yl)urea] |
| > 10000 nM | > 10000 nM | O=C(Nc1ccc2nc(-c3ccccc3)c(-c3ccccc3)cc2c1)Nc1ccccn1 [Example 139, 1-(2,3-diphenylquinolin-6-yl)-3-(pyridin-2-yl)urea] |
| ≤ 10000 nM | > 10000 nM | CC(=O)N1CCN(C(=O)Nc2ccc3nc(-c4ccccc4)c(-c4ccccc4)cc3c2)CC1 [Example 133, 4-acetyl-N-(2,3-diphenylquinolin-6-yl)piperazine-1-carboxamide] |
| < 100 nM | ≤ 10000 nM | CCC(O)CNC(=O)Nc1ccc2nc(-c3ccccc3)c(-c3ccccc3)c(C(=O)O)c2c1 (stereo not shown) [Example 65, 6-(3-(2-hydroxybutyl)ureido)-2,3-diphenylquino-line-4-carboxylic acid] |
| < 100 nM | ≤ 1000 nM | CCCCCC(=O)Nc1ccc2nc(-c3ccccc3F)c(-c3ccccc3F)cc2c1 [Example 121, N-(2,3-bis(2-fluorophenyl)quinolin-6-yl) hexanamide] |
| > 10000 nM | ≤ 10000 nM | O=C(Nc1ccc2nc(-c3ccccc3)c(-c3ccccc3)cc2c1)NC1(CO)CCCC1 [Example 143, 1-(2,3-diphenylquinolin-6-yl)-3-(1-(hydroxymethyl)cyclopentyl) urea] |
| < 100 nM | < 100 nM | CC[C@@H](O)CNC(=O)Nc1ccc2nc(-c3ccccc3)c(C)c(C(=O)NCc3ccccc3)c2c1 [Example 104, (R)-N-benzyl-6-(3-(2-hydroxybutyl)ureido)-3-methyl-2-phenylquinoline-4-carboxamide] |
| > 10000 nM | > 10000 nM | CCC(O)CNC(=O)Nc1ccc2nc(-c3ccnc(O)c3)c(-c3ccnc(O)c3)cc2c1 (stereo not shown) [Example 29, 1-(2,3-bis(2-hydroxypyridin-4-yl)quinolin-6-yl)-3-(2-hydroxybutyl) urea] |
